The values that follow come from article PMC8348780, “Preparation and Evaluation of Novel Folate Isonitrile ^99mTc Complexes as Potential Tumor Imaging Agents to Target Folate Receptors” (Molecules, 2021).

The structures appear in SMILES notation.

The test system of one series is KB tumor-bearing mice. The experiment in a line: Biodistribution study in KB tumor-bearing mice. Type of series: in vivo, BALB/c nude mice. The settings on record: 2 h p.i., labeled under weak acid condition (before the pH was changed to weakly alkaline). How it is done:
The biodistribution experiments were divided into normal groups and inhibition groups (n = 3), in which the inhibition group was injected with inhibitor (about 4 × 10^4 µg/kg) 30 min in advance. The KB tumor-bearing mice were decapitated 30 and 120 min after the tail vein injection of 0.1 mL labeled solution (about 7.4 × 10^4 Bq). The heart, liver, lung, kidney, spleen, stomach, bone, muscle, intestine, tumor, blood, and other related tissues and organs were wiped clean and weighed, and the radioactivity count was measured. Each tissue per gram of injection dose (%ID/g) was calculated.

Series [1] is described as follows: Solubility of the ligand in the labeling solution. In kind it is physicochemical. The following applies: labeling solution under weak acid.

The molecule `[C-]#[N+]CCCCCC(=O)NCCNC(=O)CC[C@H](NC(=O)c1ccc(NCc2cnc3nc(N)[nH]c(=O)c3n2)cc1)C(=O)O` [CN5FA, N^2-(4-(((2-Amino-4-oxo-3,4-dihydropteridin-6-yl)methyl)amino)benzoyl)-N^5-(2-(6-isocyanohexanamido)ethyl)-L-glutamine] had a Liver uptake in the series on KB tumor-bearing mice of 52.35 ± 1.19 %ID/g. Also, in series [1], the Solubility of ligand entry is recorded as “poor”.
